Measurements published in US12391684B2, “Pharmaceutical formulations and methods for the treatment of gastrointestinal disorders” (Renexxion, LLC, priority 2018, dated 2025).
Where a name gives a salt, the structure may show the parent alone. Read-outs that look alike come from different tables or passages of the source.

Columns and labels:
[1] = for Resulting Form: Antisolvent Water, Ambient, stirred 3 weeks
Protocol: Noncompetitive Slurry Experiments for Polymorph Screening: Noncompetitive slurry experiments were performed as a supplemental polymorph screening method. When suspensions of a polymorphic material are prepared, any polymorphic form with a lower solubility (more thermodynamically stable form) can nucleate. The nucleated forms can convert all the residual solids to the nucleated form via solvent-mediated phase transition. Suspensions of the isolated Form I were prepared by adding excess solid to several different solvent systems. The suspensions were stirred vigorously at ambient temperature for 3 weeks. The remaining solids were collected by vacuum filtration and analyzed by powder X-ray diffraction to determine if any changes in the crystalline form of the solids occurred.

[2] = Dehydration profile by thermographic analysis (TGA); format: physicochemical; conditions: dry nitrogen, 5° C./minute, 25° C. to 250° C.
Protocol: Thermographic analysis (TGA) curves were generated for the anhydrate and trihydrate using a Perkin Elmer TGA-7. Three to five milligram samples were weighed into aluminum sample pans and run under dry nitrogen at 5° C./minute from 25° C. to 250° C. The data were exported to Excel to enable plotting.

[3] = 12-month stability of the anhydrous form in stability chambers (HPLC purity, water content); format: physicochemical; conditions: 25° C./60% RH
Protocol: The dihydrochloride salt, anhydrous form of (3S, 4R, 3′R)-6-[4-(4-amino-5-chloro-2-methoxy-benzoylamino)-3-methoxy-piperidin-1-yl]-hexanoic acid 1-azabicyclo[2.2.2]oct-3′-yl ester, was placed in stability chambers with temperature and humidity controlled, for up to 12 months. The temperature was set at 25° C., and the relative humidity was set at 60%. The samples were assayed at time zero, then at 3, 6, 9, and 12 months using an HPLC method. The HPLC conditions were as follows: • Column: Inertsil C8-3, 250 mm length, 3 mm diameter, 5 μm particle size • Mobile Phase A: 2000 mL water+3 mL formic acid • Mobile Phase B: 1000 mL methanol+3 mL formic acid • Flow rate: 0.6 mL/min • Detection wavelength: 275 nm • Injection volume: 20 uL • Time: 50 minutes

[4] = Stability of the trihydrate form stored in bulk in a GMP storage facility; format: physicochemical; conditions: room temperature, relative humidity >30%, up to 11 years
Protocol: The trihydrate form was evaluated for stability with regard to purity and strength over a time period of up to 11 years, by storing it in a GMP facility under controlled conditions of temperature and relative humidity (temperature=room temperature and relative humidity >30%).

SMILES: COc1cc(N)c(Cl)cc1C(=O)N[C@@H]1CCN(CCCCCC(=O)O[C@H]2CN3CCC2CC3)C[C@@H]1OC [Form I, (3S, 4R, 3′R)-6-[4-(4-amino-5-chloro-2-methoxy-benzoylamino)-3-methoxy-piperidin-1-yl]-hexanoic acid 1-azabicyclo[2.2.2]oct-3′-yl ester]
- Resulting Form ([1]; Solvent 1-Propanol): Form 1
- Resulting Form ([1]; Solvent Acetonitrile): Form 1
- Resulting Form ([1]; Solvent Ethanol): Form 1
- Resulting Form ([1]; Solvent Methanol): Form 1
- Resulting Form ([1]; Solvent Water): Form 1
- Thermodynamic stability among anhydrous forms ([1]; outcome of the slurry experiments): most thermodynamically stable anhydrous form

SMILES: COc1cc(N)c(Cl)cc1C(=O)N[C@@H]1CCN(CCCCCC(=O)O[C@H]2CN3CCC2CC3)C[C@@H]1OC [(3S, 4R, 3′R)-6-[4-(4-amino-5-chloro-2-methoxy-benzoylamino)-3-methoxy-piperidin-1-yl]-hexanoic acid 1-azabicyclo[2.2.2]oct-3′-yl ester]
- Dehydration mass loss (TGA) [2]: absent
- Purity HPLC (Area %) ([3]; 3 months): 99.2 Area %
- Water Content ([3]; 3 months): 6.47%
- Purity HPLC (Area %) ([3]; 6 months): 99.3 Area %
- Water Content ([3]; 6 months): 8.47%
- Water Content ([3]; 6 months, listed as Anhydrous Form of the Dihydrochloride Salt): 8.47%
- Purity HPLC (Area %) ([3]; 9 months): 99.2 Area %
- Water Content ([3]; 9 months): 8.20%
- Purity HPLC (Area %) ([3]; 12 months): 99.3 Area %
- Water Content ([3]; 12 months): 8.43%
- Purity HPLC (Area %) ([3]; time 0 months): 99.3 Area %
- Water Content ([3]; time 0 months): 0.45%
- Water Content ([3]; time 0 months, listed as Anhydrous Form of the Dihydrochloride Salt): 0.45%
- Decrease in strength of the active ingredient due to increase in water content ([3]; up to 12 months): approximately 8%
- Purity of the compound versus specifications (Purity HPLC Area %) ([3]; up to 12 months): remained within the specifications

SMILES: COc1cc(N)c(Cl)cc1C(=O)N[C@@H]1CCN(CCCCCC(=O)O[C@H]2CN3CCC2CC3)C[C@@H]1OC [Compound 1, (3S, 4R, 3′R)-6-[4-(4-amino-5-chloro-2-methoxy-benzoylamino)-3-methoxy-piperidin-1-yl]-hexanoic acid 1-azabicyclo[2.2.2]oct-3′-yl ester di-hydrochloride salt]
- Stability under GMP storage [4]: stable under GMP storage
